Reference: PMC6881182 (Nature microbiology, 2019)

How the values were obtained:
[1] = molecular target: RgNanOx (RUMGNA_02695), oxidoreductase (Mediterraneibacter gnavus, UniProt A7B558); assay: HPLC of DMB-labelled product with and without cofactor; type: biochemical
[2] = tested on: CC(=O)N[C@H]1[C@H]2O[C@@](C(=O)O)(C[C@@H]1O)O[C@@H]2[C@H](O)CO; assay: purified protein; conditions: NAD+ or NADH
[3] = molecular target: T1, RgNanA (RUMGNA_02692), sialic acid aldolase (Mediterraneibacter gnavus, UniProt A7B555, K177A); assay: X-ray crystal structure; type: binding
T1 sequence (A7B555 11-315 K177A): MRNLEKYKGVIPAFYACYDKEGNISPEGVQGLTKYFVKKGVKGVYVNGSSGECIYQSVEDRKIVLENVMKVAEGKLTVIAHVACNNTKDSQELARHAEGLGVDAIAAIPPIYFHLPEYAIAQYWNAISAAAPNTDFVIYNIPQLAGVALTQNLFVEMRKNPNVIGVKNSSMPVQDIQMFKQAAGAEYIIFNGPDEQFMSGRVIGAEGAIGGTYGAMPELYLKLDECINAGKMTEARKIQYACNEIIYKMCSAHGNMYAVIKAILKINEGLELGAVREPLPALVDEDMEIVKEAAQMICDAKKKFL

[4] = molecular target: EcNanA (E. coli Neu5Ac lyase/aldolase) (Escherichia coli, UniProt P0A6L4); assay: lactate dehydrogenase-coupled aldolase assay; type: biochemical
purified protein = substrate: CC(=O)N[C@@H]1[C@@H](O)CC(O)(C(=O)O)O[C@H]1C(O)C(O)CO; assay: purified protein

NC(=O)c1ccc[n+]([C@@H]2O[C@H](COP(=O)([O-])OP(=O)(O)OC[C@H]3O[C@@H](n4cnc5c(N)ncnc54)[C@H](O)[C@@H]3O)[C@@H](O)[C@H]2O)c1 [NAD^+]
HPLC of DMB-labelled product with and without cofactor (500 μM) [1]: Neu5Ac was produced in the presence of NAD^+ or NADH, but not in the presence of FAD

NC(=O)C1=CN([C@@H]2O[C@H](COP(=O)(O)OP(=O)(O)OC[C@H]3O[C@@H](n4cnc5c(N)ncnc54)[C@H](O)[C@@H]3O)[C@@H](O)[C@H]2O)C=CC1 [NADH]
HPLC of DMB-labelled product with and without cofactor (500 μM) [1]: Neu5Ac was produced in the presence of NAD^+ or NADH, but not in the presence of FAD

RgNanOx (RUMGNA_02695), oxidoreductase (Mediterraneibacter gnavus ATCC 29149)
Km [2]: 74 ± 14 µM

CC(=O)N[C@@H]1[C@@H](O)CC(O)(C(=O)O)O[C@H]1C(O)C(O)CO (stereo partly drawn) [Neu5Ac]
X-ray crystal structure (5 mM Neu5Ac soak of inactive mutant) [3]: complex between an inactive mutant, RgNanA K167A, and Neu5Ac showed Neu5Ac in the open-chain ketone form
lactate dehydrogenase-coupled aldolase assay (control enzyme) [4]: RgNanA and EcNanA (E. coli Neu5Ac lyase/aldolase used as a control) showed activity against Neu5Ac

B1: RgNanA (RUMGNA_02692), sialic acid aldolase (Mediterraneibacter gnavus ATCC 29149) (protein)
chain: MAFMKQRSKTMRNLEKYKGVIPAFYACYDKEGNISPEGVQGLTKYFVKKGVKGVYVNGSSGECIYQSVEDRKIVLENVMKVAEGKLTVIAHVACNNTKDSQELARHAEGLGVDAIAAIPPIYFHLPEYAIAQYWNAISAAAPNTDFVIYNIPQLAGVALTQNLFVEMRKNPNVIGVKNSSMPVQDIQMFKQAAGAEYIIFNGPDEQFMSGRVIGAEGAIGGTYGAMPELYLKLDECINAGKMTEARKIQYACNEIIYKMCSAHGNMYAVIKAILKINEGLELGAVREPLPALVDEDMEIVKEAAQMICDAKKKFL
Km (purified protein): 1473 ± 98 µM
